Results reported in US20230105412A1, “5-HT3 RECEPTOR MODULATOR, THE CRYSTALLINE FORM, METHODS OF MAKING, AND USE THEREOF” (CHENGDU SCIMOUNT PHARMATECH CO., LTD., priority 2021, published 2023).
Values after ≈ are worked out from the molar mass of the structure shown.

Columns and labels:
Assay type in all cases: physicochemical
[1] = Aqueous solubility study (water slurry, HPLC, pH, XRPD); settings: for pH: pH of supernatant of overnight water slurry; for XRPD (Form) after water slurry: solids after overnight room temperature water slurry, initial Form A
Description: Approximately 20 mg of the free form, mesylate, hydrochloride, succinate, glutamate, naphthoate and phosphate salts of formula (I) were weighed to individual HPLC vials equipped with a magnetic stir bar and 0.05 mL increments of deionized water added. If dissolution was observed, the approximate solubility was recorded. If no dissolution had occurred, the slurries were stirred overnight at ambient temperature. The supernatant from each slurry was obtained using centrifuge filters. Each solution was tested for pH and by HPLG versus a calibration curve (FIG. 6) to determine the equilibrium solubility. Solids obtained from the filtration were analyzed by XRPD to confirm the crystalline form (Table 4).

[2] = Stability at elevated temperature (60° C., 7 days); settings: for XRPD (Form) after elevated temperature: 60° C., 7 days, uncovered, ambient pressure, initial Form A
Description: Approximately 10 mg of the free form, mesylate, hydrochloride, succinate, glutamate, naphthoate and phosphate salts of formula (I) were weighed to individual 4 mL vials and stored uncovered in an oven at 60° C. and ambient pressure. After seven days of exposure, the solids were analyzed by XRPD to check for form conversion and ^1H-NMR for signs of degradation (Table 5).

[3] = Gravimetric moisture sorption analysis; settings: for water adsorbed / hygroscopicity / behaviour at high relative humidity: Form A; for hygroscopicity: gravimetric moisture sorption; for XRPD of dried material following moisture sorption program: initial Form A; for behaviour at high relative humidity: above 80% RH (80% RH to 90% RH)
Description: The stability of each salt was assessed via room temperature slurries in organic solvent and water, storage at elevated temperature (60° C.), and exposure to elevated relative humidity by gravimetric moisture sorption. From the water slurries, the solubility of each salt was determined at ambient conditions.

[4] = Organic slurry experiments (7 days, THF or IPA); settings: initial Form A
Description: Approximately 30 mg of the free form, mesylate, hydrochloride, succinate, glutamate, naphthoate and phosphate salts of formula (I) were weighed to individual HPLG vials equipped with a magnetic stir bar. Either THF or IPA was added to obtain a free flowing slurry. After seven days of ambient equilibration, solid from each slurry was obtained using centrifuge filtration with 0.45 μm nylon centrifuge filters, and dried at ambient temperature and ˜30 in Hg. After drying overnight, each was analyzed by XRPD to check for form conversion and ^1H-NMR for signs of degradation (Table 6).

[5] = Gravimetric water solubility by TGA; settings: deionized water, ambient, TGA gravimetric or visual dissolution, XRPD Form A
Description: The water solubility of select salts afforded from the 70 mg scale experiments was estimated using the following gravimetric method. Approximately 20 mg of each confirmed salt was weighed into a 2 mL HPLC vial. 50 μL increments of deionized H2O were then added to each vial along with a small magnetic stir bar. If dissolution was observed, the samples were stored in a hood overnight and examined the next day for precipitation. Samples affording slurries after a maximum of 250 μl of water were left stirring at ambient conditions overnight to equilibrate. These samples were then centrifuge filtered, and 50 μL of each saturated solution was aliquoted into tared TGA pans. On the TGA, each sample was heated and held at elevated temperature until all solvent was dried off. Resulting dry weight and aliquoted volume for each saturated solution was then utilized in estimating solubility. Refer to Table 3 for results of this study.

[6] = Relative humidity study (95% RH); settings: five hours, Form A lot HAL-G-29(2)
Description: Approximately 30 mg of Form A mono-glutamate salt [lot HAL-G-29(2)] was stored uncovered in a small glass container in a desiccator containing an aqueous saturated solution of Na2HPO4.12H2O to achieve a relative humidity of 95%. After five hours of exposure the solid had deliquesced and the sample was exposed to the lab environment (20% RH) overnight. The resulting dried solid was characterized by XRPD, DSC, and TGA.
As presented above, Form B was obtained following moisture sorption analysis of Form A and subsequent drying. In an effort to generate additional Form B for further characterization, a brief humidity study was performed as described below: approximately 30 mg of Form A mono-glutamate salt [lot HAL-G-29(2)] was stored uncovered in a small glass container in a desiccator containing an aqueous saturated solution of Na2HPO4.12H2O to achieve a relative humidity of 95%.

Row | Compound | XRPD (Form) after elevated temperature [2] | hygroscopicity [3] | XRPD of dried material following moisture sorption program [3] | XRPD (Form) 7 Days ([4]; ambient slurry in IPA) | Estimated Water Solubility [5] | also measured
1 | O=C(O)c1ccc2ccccc2c1O [1-hydroxy-2-napthoic acid] | Form B | moderately hygroscopic | Form B | Form B | 4700 µg/mL | Aqueous Solubility ([1]; deionized water, ambient temperature, overnight slurry, HPLC or visual dissolution, initial XRPD Form A): 2300 µg/mL; pH [1]: 6.2; XRPD (Form) after water slurry [1]: Form C; water adsorbed ([3]; 60% RH): 1.5 wt %; water adsorbed ([3]; 90% RH): 2.5 wt %; water content during desorption ([3]; curve stabilized from 75%-55% RH): approximately 2.0 wt %
2 | O=C1CCC(C(=O)O)N1 (centres unmarked) [2-pyrrolidine-5-carboxylic acid] | no signs of conversion | relatively non-hygroscopic | Form B | no signs of conversion |  | 1H-NMR, signs of degradation [2]: No; behaviour at high relative humidity ([3]; listed as glutamate): deliquesced; behaviour at high relative humidity ([3]; listed as mono-glutamate salt): deliquescence; behaviour at 95% RH [6]: deliquesced
3 | O=C1c2cccc3[nH]nc(c23)CCN1[C@@H]1CN2CCC1CC2 [Free Form, (S)-7-(quinuclidin-3-yl)-8,9-dihydro-2H-azepino[5,4,3-cd]indazol-6(7H)-one] | no signs of form conversion | non hygroscopic | form conversion had not occurred |  |  | pH [1]: 9.3; XRPD (Form) after water slurry [1]: no change in crystalline form; solubility ([1]; thermodynamic from solid, deionized water, ambient temperature, overnight slurry, HPLC or visual dissolution, initial XRPD Form A): 2000 µg/mL (≈ 6.75 mM); 1H-NMR, signs of degradation [2]: No; water adsorbed ([3]; throughout the humidity program): less than 0.2 wt %; solubility ([5]; thermodynamic from solid, read-out: Estimated Water Solubility): < 2500 µg/mL
4 | Cl [Hydrochloric acid] | no signs of conversion |  |  | no signs of conversion |  | 
5 | O=C(O)C[C@H](O)C(=O)O [L-Malic acid] |  |  |  |  | ≥80000 µg/mL | Estimated Water Solubility ([5]; listed as malate salt): 80000 µg/mL
6 | CS(=O)(=O)O [Methanesulfonic acid] | no signs of conversion | moderately hygroscopic | no form conversion had occurred |  |  | water adsorbed ([3]; 80% RH): 4.6 wt %; water adsorbed ([3]; 90% RH): 8.8 wt %; XRPD (Form) 7 Days ([4]; ambient slurry in THF): no signs of conversion
7 | O=P(O)(O)O [Phosphoric acid] | no signs of conversion |  |  | no signs of conversion |  | 
8 | O=C(O)CCC(=O)O [Succinic acid] | no signs of conversion |  |  | no signs of conversion |  | 
9 | Cc1ccc(S(=O)(=O)O)cc1 [p-toluenesulfonic acid] |  |  |  |  | 17400 µg/mL | Estimated Water Solubility ([5]; listed as tosylate salt): 20300 µg/mL
